From ChEMBL document CHEMBL3632570, “Structure-Guided Design of Novel l-Cysteine Derivatives as Potent KSP Inhibitors” (ACS Med Chem Lett, 2015) come the findings set out here.

Structures are written as SMILES. The source made the active and inactive calls. The calls are words filed in the database; no cut-off is given here.

Series [1] relates to HCT-116. In words: Antitumor activity against human HCT116 cells xenografted in athymic nude BALB/cAJcL mouse assessed as inhibition of tumor growth at 25 mg/kg, iv administered on days 1,3,5,8,10 and 12 measured on day 15. The format is functional. (In general: In xenograft studies the graft and the host belong to different species.)
Series [2] addresses T1, Kinesin-like protein KIF15 (Homo sapiens) (UniProt Q9NS87).
T1 sequence (whole entry): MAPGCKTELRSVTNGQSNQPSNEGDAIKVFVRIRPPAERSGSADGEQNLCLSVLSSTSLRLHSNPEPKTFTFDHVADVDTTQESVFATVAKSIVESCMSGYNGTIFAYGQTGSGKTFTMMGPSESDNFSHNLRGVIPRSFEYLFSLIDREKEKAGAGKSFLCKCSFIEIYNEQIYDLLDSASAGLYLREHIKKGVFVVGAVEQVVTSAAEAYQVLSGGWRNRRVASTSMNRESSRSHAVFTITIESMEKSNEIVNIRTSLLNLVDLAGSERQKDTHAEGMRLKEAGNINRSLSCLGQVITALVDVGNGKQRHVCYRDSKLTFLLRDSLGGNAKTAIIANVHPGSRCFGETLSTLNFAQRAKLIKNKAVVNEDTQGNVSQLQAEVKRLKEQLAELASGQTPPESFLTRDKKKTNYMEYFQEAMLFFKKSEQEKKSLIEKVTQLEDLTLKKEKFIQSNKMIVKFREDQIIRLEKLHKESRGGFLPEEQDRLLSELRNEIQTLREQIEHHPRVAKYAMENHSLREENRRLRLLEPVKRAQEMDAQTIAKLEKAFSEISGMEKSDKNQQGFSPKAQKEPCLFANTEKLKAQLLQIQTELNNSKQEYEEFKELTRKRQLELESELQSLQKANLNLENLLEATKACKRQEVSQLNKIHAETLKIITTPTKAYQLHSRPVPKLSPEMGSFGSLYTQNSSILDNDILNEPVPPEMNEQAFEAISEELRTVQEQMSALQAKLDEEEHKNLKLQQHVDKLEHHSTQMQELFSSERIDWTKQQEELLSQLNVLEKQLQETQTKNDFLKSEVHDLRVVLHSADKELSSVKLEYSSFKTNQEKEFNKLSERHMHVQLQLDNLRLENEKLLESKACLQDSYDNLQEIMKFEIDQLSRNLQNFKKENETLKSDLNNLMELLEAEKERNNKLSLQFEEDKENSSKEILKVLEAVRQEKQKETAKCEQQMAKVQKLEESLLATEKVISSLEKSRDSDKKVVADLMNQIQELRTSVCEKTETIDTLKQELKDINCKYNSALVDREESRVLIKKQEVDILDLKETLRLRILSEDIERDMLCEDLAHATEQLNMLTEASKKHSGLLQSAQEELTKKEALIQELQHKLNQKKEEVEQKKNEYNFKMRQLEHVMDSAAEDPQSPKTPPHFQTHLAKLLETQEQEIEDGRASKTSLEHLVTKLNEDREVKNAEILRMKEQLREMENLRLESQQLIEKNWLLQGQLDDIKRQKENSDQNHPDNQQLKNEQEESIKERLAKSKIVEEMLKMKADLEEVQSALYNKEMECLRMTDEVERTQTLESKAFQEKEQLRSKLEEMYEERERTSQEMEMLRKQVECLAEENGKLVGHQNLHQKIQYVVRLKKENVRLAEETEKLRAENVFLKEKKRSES
In words: Inhibition of microtubule-stimulated KIF15 motor domain (1 to 372) (unknown origin) ATPase activity at 6.3 uM.

The target in series [3] is Centromere-associated protein E (Homo sapiens) (UniProt Q02224). In words: Inhibition of microtubule-stimulated CENP-E motor domain (1 to 339) (unknown origin) ATPase activity at 6.3 uM.
The target of series [4] is T2, Kinesin-like protein KIF11 (Homo sapiens) (UniProt P52732).
T2 sequence (whole entry): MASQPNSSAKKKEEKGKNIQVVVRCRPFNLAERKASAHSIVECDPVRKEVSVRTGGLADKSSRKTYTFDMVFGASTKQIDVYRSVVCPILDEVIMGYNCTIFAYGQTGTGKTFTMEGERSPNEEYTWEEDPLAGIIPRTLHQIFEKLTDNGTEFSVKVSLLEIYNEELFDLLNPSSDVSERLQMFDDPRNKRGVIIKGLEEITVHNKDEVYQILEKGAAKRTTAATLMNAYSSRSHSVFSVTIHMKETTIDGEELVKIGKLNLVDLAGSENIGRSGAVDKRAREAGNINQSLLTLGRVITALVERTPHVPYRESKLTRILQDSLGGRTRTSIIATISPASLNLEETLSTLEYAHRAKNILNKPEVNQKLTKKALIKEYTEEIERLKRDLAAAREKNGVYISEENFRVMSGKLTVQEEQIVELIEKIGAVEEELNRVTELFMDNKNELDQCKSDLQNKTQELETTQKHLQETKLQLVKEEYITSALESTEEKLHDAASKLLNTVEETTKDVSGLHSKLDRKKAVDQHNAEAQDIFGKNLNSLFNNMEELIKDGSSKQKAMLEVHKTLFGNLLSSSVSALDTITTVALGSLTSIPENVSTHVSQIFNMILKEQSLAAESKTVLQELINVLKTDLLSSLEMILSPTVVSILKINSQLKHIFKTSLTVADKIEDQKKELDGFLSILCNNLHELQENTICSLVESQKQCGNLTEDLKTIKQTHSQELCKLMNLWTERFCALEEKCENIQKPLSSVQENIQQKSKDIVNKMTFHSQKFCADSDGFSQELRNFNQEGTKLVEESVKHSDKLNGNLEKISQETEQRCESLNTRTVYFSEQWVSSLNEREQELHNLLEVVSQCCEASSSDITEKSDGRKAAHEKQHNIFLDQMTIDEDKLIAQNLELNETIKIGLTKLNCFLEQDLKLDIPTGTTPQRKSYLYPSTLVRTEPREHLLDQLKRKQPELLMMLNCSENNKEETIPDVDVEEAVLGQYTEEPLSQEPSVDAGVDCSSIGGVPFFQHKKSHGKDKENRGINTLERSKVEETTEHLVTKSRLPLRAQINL
Description: Binding affinity to KSP motor domain (unknown origin) assessed as change in melting temperature at 100 uM by differential scanning fluorimetry in presence of 1 mM ATP

The test system of series [5] is HeLa. Description: Cell cycle arrest at mitotic phase in human HeLa cells assessed as mitotic index after 6 hrs. It counts as functional.
In a further series the test system is Mus musculus. Description: Toxicity in athymic nude BALB/cAJcL mouse xenografted with HCT116 cells assessed as mortality at 75 mg/kg, iv administered on days 1,3,5,8,10 and 12. The format is organism-based, HCT-116. Conditions: in vivo.
For series [6], the system named is HCT-116. Description: Antitumor activity against human HCT116 cells xenografted in athymic nude BALB/cAJcL mouse assessed as inhibition of tumor growth at 75 mg/kg, iv administered on days 1,3,5,8,10 and 12 measured on day 15. The format is functional.
The test system of series [7] is HCT-116. In words: Antitumor activity against human HCT116 cells xenografted in iv dosed athymic nude BALB/cAJcL mouse assessed as inhibition of tumor growth drug administered on days 1,3,5,8,10 and 12 measured on day 15. The format is functional, organism-based.
Series [8] deals with HeLa. In words: Cell cycle arrest at mitotic phase in human HeLa cells assessed as formation of monopolar spindles at 40 nM after 6 hrs by DAPI staining-based microscopic analysis. The format is functional.

Sequence of Centromere-associated protein E (Homo sapiens) (Q02224 whole entry, the tested form may be a part): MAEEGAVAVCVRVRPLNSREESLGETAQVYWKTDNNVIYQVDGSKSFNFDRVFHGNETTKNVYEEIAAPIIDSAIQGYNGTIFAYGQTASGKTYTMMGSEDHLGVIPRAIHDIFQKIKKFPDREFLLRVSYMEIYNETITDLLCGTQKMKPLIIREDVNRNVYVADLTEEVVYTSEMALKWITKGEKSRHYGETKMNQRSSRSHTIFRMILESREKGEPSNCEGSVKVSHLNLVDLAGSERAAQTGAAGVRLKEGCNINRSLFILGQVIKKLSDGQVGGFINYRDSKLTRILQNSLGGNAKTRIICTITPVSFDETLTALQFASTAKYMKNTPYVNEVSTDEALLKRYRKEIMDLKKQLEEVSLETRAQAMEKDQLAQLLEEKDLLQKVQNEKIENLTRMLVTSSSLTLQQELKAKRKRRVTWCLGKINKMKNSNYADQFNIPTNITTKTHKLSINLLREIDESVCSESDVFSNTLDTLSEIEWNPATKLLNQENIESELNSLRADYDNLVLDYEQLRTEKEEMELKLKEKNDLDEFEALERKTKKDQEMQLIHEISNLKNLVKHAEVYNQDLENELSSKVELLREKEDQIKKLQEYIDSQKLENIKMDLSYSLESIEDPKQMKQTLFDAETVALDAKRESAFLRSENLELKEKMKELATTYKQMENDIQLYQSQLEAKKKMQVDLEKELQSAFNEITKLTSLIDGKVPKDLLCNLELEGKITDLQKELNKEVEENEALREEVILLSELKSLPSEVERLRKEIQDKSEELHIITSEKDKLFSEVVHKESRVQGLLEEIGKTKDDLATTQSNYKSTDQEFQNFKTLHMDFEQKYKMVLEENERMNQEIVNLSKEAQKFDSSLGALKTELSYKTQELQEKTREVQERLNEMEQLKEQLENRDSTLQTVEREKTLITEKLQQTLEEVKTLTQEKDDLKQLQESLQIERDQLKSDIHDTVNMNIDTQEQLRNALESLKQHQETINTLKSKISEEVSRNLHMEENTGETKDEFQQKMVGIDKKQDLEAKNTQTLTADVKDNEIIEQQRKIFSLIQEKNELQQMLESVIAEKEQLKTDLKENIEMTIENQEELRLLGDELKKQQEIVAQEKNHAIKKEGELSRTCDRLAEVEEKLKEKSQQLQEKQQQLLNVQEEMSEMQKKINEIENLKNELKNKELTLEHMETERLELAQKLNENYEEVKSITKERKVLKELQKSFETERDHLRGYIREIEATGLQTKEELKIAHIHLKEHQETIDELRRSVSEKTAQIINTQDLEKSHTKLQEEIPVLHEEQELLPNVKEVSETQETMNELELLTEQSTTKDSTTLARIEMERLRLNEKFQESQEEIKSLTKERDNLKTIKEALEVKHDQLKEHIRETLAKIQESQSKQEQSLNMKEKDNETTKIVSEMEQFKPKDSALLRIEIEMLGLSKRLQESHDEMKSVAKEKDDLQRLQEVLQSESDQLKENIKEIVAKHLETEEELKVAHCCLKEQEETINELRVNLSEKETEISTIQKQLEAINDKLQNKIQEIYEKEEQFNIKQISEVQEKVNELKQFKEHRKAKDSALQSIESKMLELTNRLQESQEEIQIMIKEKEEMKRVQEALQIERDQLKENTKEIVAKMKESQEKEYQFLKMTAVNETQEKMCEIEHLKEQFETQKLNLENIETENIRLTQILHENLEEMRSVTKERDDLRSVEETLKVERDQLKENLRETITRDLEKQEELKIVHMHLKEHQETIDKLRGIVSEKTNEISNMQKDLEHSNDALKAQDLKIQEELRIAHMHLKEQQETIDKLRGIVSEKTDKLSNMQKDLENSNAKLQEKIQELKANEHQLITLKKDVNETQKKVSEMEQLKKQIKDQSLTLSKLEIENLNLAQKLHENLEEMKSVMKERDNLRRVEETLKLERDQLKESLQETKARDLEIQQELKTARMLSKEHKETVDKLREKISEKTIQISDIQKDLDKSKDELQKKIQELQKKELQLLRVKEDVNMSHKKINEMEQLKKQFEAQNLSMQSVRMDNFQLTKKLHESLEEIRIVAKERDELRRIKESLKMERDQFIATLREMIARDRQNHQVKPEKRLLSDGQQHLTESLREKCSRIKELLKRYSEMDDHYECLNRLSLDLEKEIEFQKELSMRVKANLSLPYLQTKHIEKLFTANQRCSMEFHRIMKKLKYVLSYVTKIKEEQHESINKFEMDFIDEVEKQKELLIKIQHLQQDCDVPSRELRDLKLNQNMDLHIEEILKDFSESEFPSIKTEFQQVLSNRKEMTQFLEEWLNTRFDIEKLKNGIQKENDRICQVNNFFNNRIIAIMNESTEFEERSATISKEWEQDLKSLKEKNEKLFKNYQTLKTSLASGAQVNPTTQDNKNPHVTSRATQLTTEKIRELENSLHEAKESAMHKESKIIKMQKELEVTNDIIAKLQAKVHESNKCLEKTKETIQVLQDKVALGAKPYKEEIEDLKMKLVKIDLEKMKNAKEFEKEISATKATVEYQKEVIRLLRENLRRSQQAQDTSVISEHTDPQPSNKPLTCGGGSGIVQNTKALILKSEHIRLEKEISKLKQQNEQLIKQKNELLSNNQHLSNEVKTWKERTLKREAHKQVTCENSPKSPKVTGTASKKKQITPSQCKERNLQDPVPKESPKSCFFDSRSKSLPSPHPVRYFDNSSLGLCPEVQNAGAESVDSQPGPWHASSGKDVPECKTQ

By T/C is commonly meant the result in the treated group divided by that in the control group, in per cent. As a reminder, the ΔTm is the shift of the melting midpoint relative to a reference. With `COc1ccc(C2(SC[C@H](N)C(=O)O)c3ccccc3CCc3ccccc32)cc1`, the T/C in the series on HCT-116 [1] is 26%. In addition, the inhibition entry in series [2] and in series [3] was “inactive” throughout. Further, the ΔTm in series [4] was 12 °C.
As for `N[C@@H](CSC1(c2ccc(C(F)(F)F)cc2)c2ccccc2CCc2ccccc21)C(=O)O`, the figures for the T/C in the series on HCT-116 [1] and in the series on HCT-116 [6] were 21% and 9%, respectively. Besides, in the series with HeLa [5], the MI50 turned out to be 14 nM. The Activity entry in the series with Mus musculus is listed as “Non-toxic”. The inhibition entry in series [2] and in series [3] was “inactive” each time. For the same compound, the TGI entry with HCT-116 [7] was “Dose-dependent effect”. The outcome in the series on HeLa [8] was Active.
